Test results from BindingDB's records for doi:10.1021/jm00388a036 (1987).

Target: Thymidine kinase (Herpes simplex virus 1)
Assay: Binding affinity was determined against Herpes simplex virus (HSV) -1 thymidine kinase in vero cell monolayer culture

Ki: 25 µM
Structure (SMILES): Nc1nc2c(ncn2CC=C(CO)CO)c(=O)[nH]1
